Where two headings read alike, the source gives them in different places. Ends that are not written are not given here.

We go through five compounds from patent US5536645A, “Nutritive medium for the culture of microorganism” (priority 1993, dated 1996).

Assay type in all cases: cell-based
One assay has as its system E. coli. In words: microbe, parasite or virus in culture. Conditions: for MIC: Escherichia coli, 12 h, read-out: Equivalent MIC. Here is the method: (§1) With the determination of the sensitivity to antibiotics in mind, a suspension of 0.5 MF (Mac Farland) in physiological water was prepared from bacterial colonies selected in Petri dishes, reading being carried out on an ATB 1550 densitometer marketed by BIOMERIEUX (ATB trade mark). The suspension obtained was respectively diluted to 1/100th in the medium of the invention and Mueller-Hinton medium. VITEK cards (VITEK trade mark) containing different antibiotics at 10 concentrations were filled in vacuo into a VITEK apparatus marketed by BIOMERIEUX-VITEK. The cards were incubated for 12 hours in a VITEK incubator/reader marketed by BIOMERIEUX-VITEK. The growth kinetics were visualized and interpreted and an equivalent MIC was determined (equivalent MIC: equivalent minimum inhibitory concentration, that is to say the smallest concentration for which no bacterial growth is detected by the apparatus).
(§2) IST refers to the medium of the invention and MH signifies Mueller-Hinton medium.
(§3) S, I and R respectively signify "sensitive", "intermediate" and "resistant" with reference to the critical concentrations defined by the NCCLS (National Committee for Clinical Laboratory Standards).

For a further assay, the system named is S. marcescens. As to the kind of experiment: Equivalent MIC of antibiotics in VITEK cards, gram-negative bacteria (Table 3). Conditions: for MIC: Serratia marcescens, 12 h. Here is the method: as §1, §2, §3
For the next assay, the system named is P. aeruginosa. Described as above. Conditions: for MIC: Pseudomonas aeruginosa. On the procedure:
as §1, §2, §3

The next assay deals with enterococci. In words: Effect of medium constituents and peptides on growth of enterococci. The text has this: It is moreover known to affect the activity of the sulfamides and trimethoprim family (Then R. et al., Mecanisme moleculaire de la bactericidie; sulfamides et trimethoprime [Molecular mechanism of bactericidal activity; sulfamides and trimethoprim]. Bactericidie 1990, Editions Maloine, Paris).
The purine and pyrimidine bases can be supplied in several forms, that is to say in the form of precursors, of free bases, of nucleosides or of nucleotides. […] The proportions between purines and pyrimidines were defined in relation to those described for the synthesis of RNA by Neidhart (Neidhart et al. (1990) Physiology of the bacterial cell. A molecular approach. Sinauer associates, inc. U.S.A.), taking account of the absence of thymidine, that is to say purines/pyrimidines in a ratio of between 1.5 and 2.2 and advantageously of 1.8. The final concentrations were then optimized essentially to satisfy the growth of the staphylococci and of the enterococci.

The test system of a further assay is S. epidermidis. As to the kind of experiment: microbe, parasite or virus in culture. The following applies: for MIC: Staphylococcus epidermidis, 12 h, read-out: Equivalent MIC. Here is the method:
as §1, §2
(§4) *A range of concentration, of ratio 2, was tested for each antibiotic in
(§5) each of the abovementioned concentration margins.
as §3

The next assay has as its system S. aureus. As to the kind of experiment: microbe, parasite or virus in culture. Conditions: for MIC: Staphylococcus aureus, read-out: Equivalent MIC. Here is the method: as §1, §2, §4, §5, §3
The next assay has as its system E. faecalis. As to the kind of experiment: Equivalent MIC of antibiotics in VITEK cards, gram-positive bacteria (Table 4). The following applies: for MIC: Enterococcus faecalis, 12 h. On the procedure: as §1, §2, §4, §5, §3
Setting [1] is: ATCC29213, 12 h, ATCC 29213, IST medium.
The mark [2] stands for this setting: ATCC29213, 12 h, ATCC 29213, MH medium.

Consider `CC(C)(O/N=C(\C(=O)N[C@@H]1C(=O)N2C(C(=O)[O-])=C(C[n+]3ccccc3)CS[C@H]12)c1csc(N)n1)C(=O)O` [ceftazidim], for which the “NCCLS Category” value is “S” with E. coli (CDC 2008, IST medium); “S” in the assay with E. coli (CDC 2008, MH medium); “S” in the assay with E. coli (CDC 2254, IST medium); “S” in the assay with E. coli (CDC 2254, MH medium); “S” in the assay with S. marcescens (CDC 2102, IST medium); “S” in the assay on S. marcescens (CDC 2102, MH medium). Moreover, the “NCCLS Category” value in the assay on S. marcescens (CDC 2162, IST medium) was “S”; with S. marcescens (CDC 2162, MH medium), “S”; in the assay with S. marcescens (CDC 2240, IST medium), “S”; in the assay on S. marcescens (CDC 2240, MH medium), “S”; in the assay with P. aeruginosa (AP 9, IST medium), “R”; in the assay with P. aeruginosa (AP 9, MH medium), “R”. The “NCCLS Category” value in the assay with P. aeruginosa (AP 13, IST medium) was “S”; in the assay with P. aeruginosa (AP 13, MH medium), “S”; in the assay on P. aeruginosa (ATCC 27853, IST medium), “S”; in the assay with P. aeruginosa (ATCC 27853, MH medium), “S”; with P. aeruginosa (CDC 2275, IST medium) it was “S”; in the assay on P. aeruginosa (CDC 2275, MH medium) it was “S”. Further, the MIC in the assay with E. coli (CDC 2008, IST medium) was less than 0.06 µg/mL; in the assay on E. coli (CDC 2008, MH medium), less than 0.06 µg/mL; in the assay with E. coli (CDC 2254, IST medium), 0.5 µg/mL; with E. coli (CDC 2254, MH medium), 1 µg/mL; in the assay with S. marcescens (read-out: Equivalent MIC, CDC 2102, IST medium), 0.5 µg/mL; with S. marcescens (read-out: Equivalent MIC, CDC 2102, MH medium), 0.25 µg/mL. The MIC in the assay with S. marcescens (read-out: Equivalent MIC, CDC 2162, IST medium) is 2 µg/mL; in the assay on S. marcescens (read-out: Equivalent MIC, CDC 2162, MH medium), 2 µg/mL; with S. marcescens (read-out: Equivalent MIC, CDC 2240, IST medium), 0.5 to 1 µg/mL; with S. marcescens (read-out: Equivalent MIC, CDC 2240, MH medium) it was 1 µg/mL; in the assay with P. aeruginosa (12 h, read-out: Equivalent MIC, AP 9, IST medium) it was 32 µg/mL; in the assay on P. aeruginosa (12 h, read-out: Equivalent MIC, AP 9, MH medium), 32 µg/mL. The MIC in the assay with P. aeruginosa (12 h, read-out: Equivalent MIC, AP 13, IST medium) was 4 µg/mL; in the assay with P. aeruginosa (12 h, read-out: Equivalent MIC, AP 13, MH medium), 4 µg/mL; with P. aeruginosa (12 h, read-out: Equivalent MIC, CDC 2275, IST medium), 4 µg/mL; in the assay on P. aeruginosa (12 h, read-out: Equivalent MIC, CDC 2275, MH medium), 4 µg/mL; in the assay with P. aeruginosa (ATCC27853, 12 h, read-out: Equivalent MIC, ATCC 27853, IST medium) it was 1 µg/mL; with P. aeruginosa (ATCC27853, 12 h, read-out: Equivalent MIC, ATCC 27853, MH medium) it was 2 µg/mL.

For EDRPPLFGQGTV, the growth result in the assay with enterococci (addition of peptides to the medium) was “interesting results for other strains of Enterococci”.

Regarding `O=c1cc[nH]c(=O)[nH]1` [uracil], the “base requirements of the enterococci” value with enterococci (supplied as precursors) is listed as “does not satisfy the base requirements of the enterococci”.

In the case of `CN[C@H](CC(C)C)C(=O)N[C@H]1C(=O)N[C@@H](CC(N)=O)C(=O)N[C@H]2C(=O)N[C@H]3C(=O)N[C@H](C(=O)N[C@H](C(=O)O)c4cc(O)cc(O)c4-c4cc3ccc4O)[C@H](O)c3ccc(c(Cl)c3)Oc3cc2cc(c3O[C@@H]2O[C@H](CO)[C@@H](O)[C@H](O)[C@H]2O[C@H]2C[C@](C)(N)[C@H](O)[C@H](C)O2)Oc2ccc(cc2Cl)[C@H]1O` [vancomycin], the “NCCLS Category” value was “S” in the assay on S. epidermidis (CDC 2024, IST medium); “S” in the assay with S. epidermidis (CDC 2024, MH medium); “S” in the assay with S. epidermidis (CDC 2105, IST medium); “S” in the assay on S. epidermidis (CDC 2105, MH medium); “S” with S. epidermidis (CDC 2234, IST medium); “S” in the assay with S. epidermidis (CDC 2234, MH medium). The “NCCLS Category” value in the assay with S. aureus (ATCC 29213, IST medium) is recorded as “S”; in the assay on S. aureus (ATCC 29213, MH medium), “S”; with S. aureus (CDC 2194, IST medium), “S”; in the assay with S. aureus (CDC 2194, MH medium) it was “S”; in the assay with S. aureus (CDC 2215, IST medium) it was “S”; in the assay with S. aureus (CDC 2215, MH medium), “S”. Also, the “NCCLS Category” value in the assay with E. faecalis (CDC 2017, IST medium) is given as “I”; in the assay on E. faecalis (CDC 2017, MH medium), “I”; in the assay on E. faecalis (CDC 2225, IST medium), “S”; in the assay on E. faecalis (CDC 2225, MH medium) it was “S”; in the assay on E. faecalis (CDC 2230, IST medium) it was “S”; in the assay with E. faecalis (CDC 2230, MH medium), “S”. Also, the MIC in the assay on S. epidermidis (CDC 2024, IST medium) amounted to 4 µg/mL; with S. epidermidis (CDC 2024, MH medium), 4 µg/mL; in the assay with S. epidermidis (CDC 2105, IST medium), 4 µg/mL; in the assay with S. epidermidis (CDC 2105, MH medium) it was 2 µg/mL; with S. epidermidis (CDC 2234, IST medium) it was 2 µg/mL; with S. epidermidis (CDC 2234, MH medium) it was 2 µg/mL. Moreover, the MIC with S. aureus (12 h, CDC 2194, IST medium) is 2 µg/mL; in the assay with S. aureus (12 h, CDC 2194, MH medium), 1 µg/mL; with S. aureus (12 h, CDC 2215, IST medium), 2 µg/mL; with S. aureus (12 h, CDC 2215, MH medium) it was 1 µg/mL; in the assay on S. aureus (setting [1]) it was 2 µg/mL; in the assay on S. aureus (setting [2]) it was 2 µg/mL. Besides, the MIC is 8 µg/mL in the assay on E. faecalis (CDC 2017, IST medium); 16 µg/mL in the assay on E. faecalis (CDC 2017, MH medium); 4 µg/mL with E. faecalis (CDC 2225, IST medium); 4 µg/mL with E. faecalis (CDC 2225, MH medium); 1 µg/mL with E. faecalis (CDC 2230, IST medium); 1 to 2 µg/mL with E. faecalis (CDC 2230, MH medium).

Turning to `CC[C@H]1OC(=O)[C@H](C)[C@@H](O[C@H]2C[C@@](C)(OC)[C@@H](O)[C@H](C)O2)[C@H](C)[C@@H](O[C@@H]2O[C@H](C)C[C@H](N(C)C)[C@H]2O)[C@](C)(O)C[C@@H](C)C(=O)[C@H](C)[C@@H](O)[C@]1(C)O` [erythromicin], the “NCCLS Category” value is recorded as “S” in the assay on S. epidermidis (CDC 2024, IST medium); “S” with S. epidermidis (CDC 2024, MH medium); “S” with S. epidermidis (CDC 2105, IST medium); “S” in the assay on S. epidermidis (CDC 2105, MH medium); “R” in the assay on S. epidermidis (CDC 2234, IST medium); “R” in the assay on S. epidermidis (CDC 2234, MH medium). Further, the “NCCLS Category” value is recorded as “S” in the assay with S. aureus (ATCC 29213, IST medium); “S” in the assay with S. aureus (ATCC 29213, MH medium); “R” in the assay on S. aureus (CDC 2194, IST medium); “R” in the assay with S. aureus (CDC 2194, MH medium); “S” in the assay with S. aureus (CDC 2215, IST medium); “S” in the assay with S. aureus (CDC 2215, MH medium). Further, the “NCCLS Category” value in the assay with E. faecalis (CDC 2073, IST medium) is recorded as “R”; with E. faecalis (CDC 2073, MH medium), “R”; in the assay on E. faecalis (CDC 2230, IST medium), “I”; in the assay with E. faecalis (CDC 2230, MH medium), “I”. For the same compound, the MIC was 0.5 µg/mL with S. epidermidis (CDC 2024, IST medium); 0.25 µg/mL with S. epidermidis (CDC 2024, MH medium); 0.25 µg/mL with S. epidermidis (CDC 2105, IST medium); 0.25 µg/mL in the assay on S. epidermidis (CDC 2105, MH medium); more than 32 µg/mL with S. epidermidis (CDC 2234, IST medium); more than 32 µg/mL in the assay on S. epidermidis (CDC 2234, MH medium). In addition, the MIC was more than 32 µg/mL in the assay on S. aureus (12 h, CDC 2194, IST medium); more than 32 µg/mL in the assay with S. aureus (12 h, CDC 2194, MH medium); 0.5 µg/mL in the assay with S. aureus (12 h, CDC 2215, IST medium); 0.5 µg/mL in the assay with S. aureus (12 h, CDC 2215, MH medium); 0.5 µg/mL in the assay on S. aureus (setting [1]); 0.25 µg/mL in the assay on S. aureus (setting [2]). The MIC came to 16 µg/mL in the assay with E. faecalis (CDC 2073, IST medium); 16 µg/mL with E. faecalis (CDC 2073, MH medium); 4 µg/mL with E. faecalis (CDC 2230, IST medium); 4 µg/mL in the assay on E. faecalis (CDC 2230, MH medium).
